What was measured:
[1] = tested on: Beet Armyworm (BAW) (Spodoptera exigua); assay: Bioassays on Beet Armyworm (BAW), 128-well diet tray assay; type: in vivo; conditions: 168 h, 50 μg/cm^2 test compound on artificial diet, second instar larvae, 25° C., five to seven days, average of eight wells, read-out: BAW Rating (% mortality)
Procedure: (§1) Certain molecules disclosed in this document were tested against BAW and CEW using procedures described in the following examples. In the reporting of the results, the “BAW & CEW Rating Table” was used (See Table Section).
Bioassays on BAW (Spodoptera exigua)
Bioassays on BAW were conducted using a 128-well diet tray assay. one to five second instar BAW larvae were placed in each well (3 mL) of the diet tray that had been previously filled with 1 mL of artificial diet to which 50 μg/cm^2 of the test compound (dissolved in 50 μL of 90:10 acetone-water mixture) had been applied (to each of eight wells) and then allowed to dry. Trays were covered with a clear self-adhesive cover, and held at 25° C., 14:10 light-dark for five to seven days. Percent mortality was recorded for the larvae in each well; activity in the eight wells was then averaged. The results are indicated in the table entitled “Table 3: Assay Results” (See Table Section).

[2] = tested on: Corn Earworm (CEW) (Helicoverpa zea); assay: Bioassays on Corn Earworm (CEW), 128-well diet tray assay; type: in vivo; conditions: 168 h, 50 μg/cm^2 test compound on artificial diet, second instar larvae, 25° C., five to seven days, average of eight wells, read-out: CEW Rating (% mortality)
Procedure: as §1
Bioassays on CEW (Helicoverpa zea)
Bioassays on CEW were conducted using a 128-well diet tray assay. one to five second instar CEW larvae were placed in each well (3 mL) of the diet tray that had been previously filled with 1 mL of artificial diet to which 50 μg/cm^2 of the test compound (dissolved in 50 μL of 90:10 acetone-water mixture) had been applied (to each of eight wells) and then allowed to dry. Trays were covered with a clear self-adhesive cover, and held at 25° C., 14:10 light-dark for five to seven days. Percent mortality was recorded for the larvae in each well; activity in the eight wells was then averaged. The results are indicated in the table entitled “Table 3: Assay Results” (See Table Section).

| Compound | mortality at 50 µg/cm2 [1] | mortality at 50 µg/cm2 [2] |
| --- | --- | --- |
| Cc1ccc(C(/C=C/c2ccc(-n3cncn3)cc2)C(F)(F)F)cc1 (stereo not shown) [DC5] | 0% | 0% |
| N#Cc1cc(/C=C/C(c2cc(Cl)cc(Cl)c2)C(F)(F)F)ccc1-n1cncn1 (stereo not shown) [DC29] | 50 to 100% | 50 to 100% |
| Cc1cc(/C=C/C(c2cc(Cl)cc(Cl)c2)C(F)(F)F)ccc1C(=O)NCc1ccccn1 (stereo not shown) [AC12] | 50 to 100% | 50 to 100% |
| Cc1cc(-n2cncn2)ccc1/C=C/C(c1cc(Cl)cc(Cl)c1)C(F)(F)F (stereo not shown) [DC65] | 0% | 50 to 100% |
| O=C(NC1CS(=O)(=O)C1)c1ccc(/C=C/C(c2cc(Cl)c(Cl)c(Cl)c2)C(F)(F)F)cc1C(F)(F)F (stereo not shown) [AC35] | 50 to 100% | 50 to 100% |
| Cc1cc(/C=C/C(c2cc(Cl)cc(Cl)c2)C(F)(F)F)ccc1C(=O)NCC(=O)NC1CC1 (stereo not shown) [AC40] | 50 to 100% | 50 to 100% |
| Cc1cc(/C=C/C(c2cc(Cl)cc(Cl)c2)C(F)(F)F)cnc1C(=O)NCc1ccc(Cl)nc1 (stereo not shown) [AC60] | 50 to 100% | 50 to 100% |
| N#Cc1cc(/C=C/C(c2cc(Cl)cc(Cl)c2)C(F)(F)F)ccc1-n1cnc(N)n1 (stereo not shown) [DC38] | 50 to 100% | 50 to 100% |
| Cc1cc(/C=C/C(c2cc(Cl)cc(Cl)c2)C(F)(F)F)ccc1C(=O)NCc1ccccc1 (stereo not shown) [AC11] | 50 to 100% | 50 to 100% |
| COC(/C=C/c1ccc(-n2cncn2)cc1)(c1cc(Cl)cc(Cl)c1)C(F)(F)F (stereo not shown) [DC70, (E)-1-(4-(3-(3,5-dichlorophenyl)-4,4,4-trifluoro-3-methoxybut-1-en-1-yl)phenyl)-1H-1,2,4-triazole] | 50 to 100% | 50 to 100% |
| CC(C)(C)C(=O)NCc1ccc(/C=C/C(c2cc(Cl)c(Cl)c(Cl)c2)C(F)(F)F)cc1Cl (stereo not shown) [CC12] | 0% | 0% |
| O=C(NCc1ccc(/C=C/C(c2ccc(Cl)c(Cl)c2)C(F)(F)F)cc1Cl)C1CC1 (stereo not shown) [CC17] | 50 to 100% | 50 to 100% |
| Cc1cc(/C=C/C(c2cc(Cl)c(Cl)c(Cl)c2)C(F)(F)F)ccc1C(=O)NCc1ccc(Cl)nc1 (stereo not shown) [AC22] | 50 to 100% | 50 to 100% |
| O=C(NCc1ccc(Cl)nc1)c1ccc(/C=C/C(c2cc(Cl)cc(Cl)c2)C(F)(F)F)cc1Br (stereo not shown) [AC46] | 50 to 100% | 50 to 100% |
| O=C(NCc1ccc(/C=C/C(c2cc(Cl)cc(Cl)c2)C(F)(F)F)c2ccccc12)C1CC1 (stereo not shown) [CC47] | 0% | 0% |
| COc1cc(/C=C/C(c2cc(Cl)c(F)c(Cl)c2)C(F)(F)F)ccc1C(=O)NCc1ccc(Cl)nc1 (stereo not shown) [AC70] | 0% | 0% |
| O=C(NCc1ccc(/C=C/C(c2cc(Cl)c(Cl)c(Cl)c2)C(F)(F)F)cc1Cl)C1CC1 (stereo not shown) [CC11] | 50 to 100% | 50 to 100% |
| O=C(c1ccc(/C=C/C(c2cc(Cl)cc(Cl)c2)C(F)(F)F)cc1)N1CCOCC1 (stereo not shown) [AC5] | 0% | 0% |
| FC(F)(F)C(/C=C/c1ccc(-n2cncn2)cc1)c1cc(Cl)cc(Cl)c1Cl (stereo not shown) [DC17] | 50 to 100% | 50 to 100% |
| Cc1ncn(-c2ccc(/C=C/C(c3cc(Cl)cc(Cl)c3)C(F)(F)F)cc2)n1 (stereo not shown) [DC21] | 0% | 0% |
| FC(F)(F)C(/C=C/c1ccc(-n2cncn2)cc1)c1ccc(Cl)c(Cl)c1 (stereo not shown) [DC12] | 50 to 100% | 50 to 100% |
| CONC(=O)CNC(=O)c1ccc(/C=C/C(c2cc(Cl)c(Cl)c(Cl)c2)C(F)(F)F)cc1Br (stereo not shown) [AC110] | 50 to 100% | 50 to 100% |
| FC(F)(F)C(/C=C/c1ccc(-n2cncn2)c(Cl)c1)c1cc(Cl)c(Cl)c(Cl)c1 (stereo not shown) [DC49] | 50 to 100% | 50 to 100% |

From US9615576B2, “Pesticidal compositions and processes related thereto” (Dow AgroSciences LLC, priority 2011, dated 2017)
